Test results reported in US5968920A, “Compounds having a benzisoselen-azoline and -azine structure, method for preparing same and therapeutic uses thereof” (Oxis Isle of Man, Limited, priority 1994, dated 1999).

Experiments:
endothelial cells [1] = assay: Protection of endothelial cells against hydrogen peroxide (NO production after bradykinin); assay type: cell-based; settings: Homo sapiens, Endothelial cell; compound 1 μM; hydrogen peroxide 100 μM; bradykinin 100 nM; read-out: recovery of the normal response to bradykinin (NO production)
Method: (§1) Human endothelial cells were cultivated at 37° C. in 6-hole plates or Petri dishes (35 mm diameter) in an atmosphere of saturated humidity constituted by a gaseous mixture of 95% air and 5% of CO2. The culture medium was constituted by a M 199 medium, pH=7.4, containing 20% of foetal calf serum, 2 mM of L-glutamine, 100 U/ml of penicillin and 100 μg/ml of streptomycin.
When the cells were confluent, they were incubated in the presence or absence (control) of a compound with general structure I in culture medium at a concentration of between 1 and 10 μM, all other conditions being the same. After washing the cells three successive times with a PBS buffer, they were incubated in the presence or absence (control) of hydrogen peroxide, 500 or 100 μM, in the reaction medium. The cells were then washed three times with PBS buffer. They were then stained using the May-Grunwald/Giemsa procedure which caused the nucleus to stain purple and the cytoplasm, light violet, or they were used to measure their ability to produce nitric oxide NO. (EDRF). The production of NO. by endothelial cells was made using a NO. electrode, after stimulation with bradykinin, 100 nM, using the procedure described by H. Tsukahara et al., (Biochem. and Biophys. Res. Comm., (1993), 193, pp 722-729).
Treatment with 100 μM hydrogen peroxide had no significant effect on cellular density. […]

endothelial cells [2] = assay: Absence of toxicity in a culture of endothelial cells in vitro (MTT); assay type: cell-based, human; settings: no more than 10 μM, 24 or 48 hours
Method: Human endothelial cells were cultivated under the same conditions as those described for Example 18, in 96-hole plates.
When the cells were near confluence, they were incubated or not (control) for 24 or 48 hours in the presence of BXT-51056 or BXT-51072 incorporated into the culture medium at a concentration of no more than 10 μM. After 24 or 48 hours, the cells were rinsed three times with a PBS buffer and the viability of the cells was measured using the bromide of 3-(4,5-dimethylthiazol-2-yl)-2,5-diphenyl-2H-tetrazolium (MTT).

[3] = Glutathione peroxidase activity, t-BuOOH as hydroperoxide; assay type: biochemical; settings: compound 20 μM, pH = 7.3, 37° C., [GSH] = 2 mM
Method: (§2) To 1.5 ml of HEPES buffer, 50 mM, pH=7.3, containing 0.2 mM of DTPA, 0.144 mM of NADPH, 2.2 mM of reduced glutathione and 1.1 U/ml of glutathione disulfide reductase, pre-equilibrated for 2 minutes at 37° C., 100 μl of an ethanolic mother solution of the compound to be tested or 100 μl of absolute ethanol (blank) was added. Each compound was tested at a final concentration of 20 μM.
(§3) Subsequently, 50 μl of the following was added:
tertiobutyl hydroperoxide (t-BuOOH), 6.6 mM in ultrapure water;
(§4) or the hydroperoxide of linoleic acid (18:2-OOH) prepared using soya lipoxygenase (see M. O. Funk et al., Lipids, (1976), 11, pp 113-117), 3.3 mM in a water/methanol mixture, 85/15 (V/V). The glutathione peroxidase activity was measured at 37° C. by measuring the reduction in absorbance at 340 nm over 5 minutes. The initial enzymatic rate or activity was proportional to the slope of the plot of absorbance against time.
(§5) They are expressed in nmoles of hydroperoxide reduced per minute.

[4] = Glutathione peroxidase activity, hydrogen peroxide; assay type: biochemical; settings: compound 20 μM, pH = 7.3, 37° C., [GSH] = 2 mM
Method: as §2, §3
or hydrogen peroxide (H2 O2), 1.6 mM in ultrapure water;
as §4, §5

[5] = Glutathione peroxidase activity, linoleic acid hydroperoxide; assay type: biochemical; settings: compound 20 μM, pH = 7.3, 37° C., [GSH] = 2 mM
Method: as §2, §3, §4, §5

endothelial cells [6] = assay: Viability of endothelial cells subjected to linoleic acid hydroperoxide (MTT); assay type: cell-based, human; settings: compound 4 μM, 1 h; 18:2-OOH 50 μM, 2 h; MTT after about twenty hours
Method: as §1, with “multi-hole” for “6-hole”, “dishes” for “dishes (35 mm diameter)”, “penicillin,” for “penicillin and”, “streptomycin and 1% by volume of a medium supplement containing heparin and a cell growth factor.” for “streptomycin.”
When the cells were near confluence, they were incubated for one hour in the presence or absence of one of the following compounds: BXT-51056, BXT-51072, BXT-51077, or ebelsen. Each of these compounds was incorporated at 4 μM into culture medium containing 2% of foetal calf serum, all other conditions being the same.
After washing the cells three successive times with a PBS buffer, they were incubated in the presence or absence (control) of linoleic acid hydroperoxide (18:2-OOH), 50 μM, in the culture medium defined above. […] After about twenty hours, the viability of the cells was determined by measurement using the bromide of 3-(4,5-dimethylthiazol-2-yl)-2,5-diphenyl-2H-tetrazolium (MTT).
The results are shown in FIG. 1, expressed as the survival percentage with respect to the control and where the reference is shown by the black rectangle.

endothelial cells [7] = assay: Adhesion of PMN to endothelial cells induced by TNF-α (myeloperoxidase); assay type: cell-based, human; settings: compound 10 μM vs pentoxifylline 50 μM; TNF-α 1 ng/ml
Method: (§6) Human endothelial cells were cultivated under the same conditions as those described for Example 18.
(§7) When the cells were near confluence, they were incubated for one hour in the presence or absence of the following compounds: BXT-51072, BXT-51077 or pentoxifylline. Compounds BXT-51072 and BXT-51077, each at 10 μM, and the pentoxifylline, at 50 μM, were incorporated in culture medium containing 2% of foetal calf serum, all other conditions being the same. […] Myeloperoxidase (MPO), an enzyme specifically contained in PMNs, was then measured in the cell lysates obtained to evaluate adhesion of the PMNs on the endothelial cells. The von Willebrandt factor (vWf) liberated in the culture medium by the endothelial cells was measured after three and a half hours of incubation, as a label of the changes in the cells.
(§8) Incubation of the endothelial cells in the presence of PMN and TNF-α led to a very significant increase in the quantity of MPO and vWf with respect to the respective controls (PMN alone, and endothelial cells alone respectively), meaning the adhesion of activated PMNs to the endothelial cells and changes in the latter.
(§9) They are expressed as the percentage inhibition by referring the MPO and vWf measurements to the respective concentrations of MPO and vWf determined when the endothelial cells were incubated with TNF-α and PMNs.

endothelial cells [8] = assay: Endothelial changes induced by PMN and TNF-α (von Willebrandt factor release); assay type: cell-based, human; settings: BXT compounds 10 μM, pentoxifylline 50 μM; TNF-α 1 ng/ml; 3.5 h
Method: as §6, §7, §8, §9

interleukin 8 (IL-8) = assay: Endothelial production of interleukin 8 induced by TNF-α; assay type: cell-based, human; settings: 4 h
Method: as §6
When the cells were near confluence, they were incubated for one hour in the presence or absence of the following compounds: BXT-51072, BXT-51077 or ebselen. Each of these compounds was incorporated into culture medium containing 2% of foetal calf serum at 10 μM, all other conditions being the same. […] After four hours of incubation, the interleukin 8 (IL-8) in the culture medium was measured.

[9] = system: von Willebrandt factor (vWf); assay: Protection of endothelial cells against interleukin 1 (von Willebrandt factor release); assay type: cell-based; settings: Homo sapiens, Endothelial cell, 4 h, read-out: inhibition of increase in vWf liberation induced by IL-1
Method: as §6
When the cells were near confluence, they were incubated for one hour in the presence or absence of the following compounds: BXT-51072, BXT-51077, each of these compounds being at 10 μM in culture medium containing 2% of foetal calf serum , all other conditions being the same. The cells were then washed three times with a PBS buffer. The cells which had not been pretreated by a compound were incubated in the presence or absence (control) of interleukin 1α (IL-1α), at 50 U/ml, in the same culture medium. […] After four hours of incubation, the von Willebrandt factor (vWf) in the culture medium was measured.

[10] = in the presence of excess glutathione GSH; cited from earlier work
[11] = prior art, Wendel 1984; Mercurio and Combs 1986; cited from earlier work

CC1(C)N[Se]c2ccccc21 [BXT-51056, 3,3-dimethyl-benzisoselenazoline]
activity at 1 µM (endothelial cells [1]): > 80% | toxicity to endothelial cells (endothelial cells [2]): not toxic to endothelial cells

CC1(C)N[Se](=O)c2ccccc21 (centres unmarked) [BXT-51059]
Glutathione peroxidase activity, t--BuOOH [3]: 0.2 nmoles of hydroperoxide reduced/min | Glutathione peroxidase activity, H2 O2 [4]: 0.1 nmoles of hydroperoxide reduced/min | Glutathione peroxidase activity, 18:2-OOH [5]: 0.8 nmoles of hydroperoxide reduced/min

CC1(C)N[Se]c2ccc([N+](=O)[O-])cc21 [BXT-51075, 3,3'-dimethyl-5-nitro-benzisoselenazoline]
Glutathione peroxidase activity, t--BuOOH [3]: 3,2 nmoles of hydroperoxide reduced/min | Glutathione peroxidase activity, H2 O2 [4]: 5,9 nmoles of hydroperoxide reduced/min

CCN1CC(C)(C)c2ccccc2[Se]1 [BXT-51078, 4,4-dimethyl-2-ethyl-benzisoselenazine]
Glutathione peroxidase activity, t--BuOOH [3]: 16.5 nmoles of hydroperoxide reduced/min

COc1ccc2c(c1)C(C)(C)CN[Se]2 [BXT-51077, 4,4-dimethyl-6-methoxy-benzisoselenazine]
Glutathione peroxidase activity, t--BuOOH [3]: 35.4 nmoles of hydroperoxide reduced/min | protection of the cells from death induced by 18:2-OOH (endothelial cells [6]): significantly protected the cells from death | inhibition of the adhesion of PMN induced by TNF-α (MPO) (endothelial cells [7]): inhibit the adhesion of PMN induced by TNF-α, much more effectively than pentoxifylline | protection of endothelial cells against the deleterious effects of activated PMNs (vWf) (endothelial cells [8]): protect endothelial cells against the deleterious effects of activated PMNs | inhibition at 10 µM (interleukin 8 (IL-8); Homo sapiens, read-out: inhibition of IL-8 production induced by TNF-α): ≥ 70% | inhibition at 10 µM [9]: > 70%

O=c1c2ccccc2[se]n1-c1ccccc1 [ebselen, 2-phenyl-3-one-benzisoselenazoline(2H)]
inhibition of IL-8 production induced by TNF-α (in words) (interleukin 8 (IL-8); compound 10 μM, TNF-α 0.1, 1 or 10 ng/ml): no inhibiting effect | water solubility of the derivative produced with excess glutathione GSH [10]: only very slightly soluble in water | toxic effect [11]: do not appear to have a major toxic effect
